Earlier results in publication PMC5346970 (Journal of Medicinal Chemistry, 2017).
Where “and” joins values, the source holds several entries; their conditions need not be identical. Equal values may be shown once. Read-outs that look alike come from different tables or passages of the source.

Experiments:
[1] = for conjugate level in blood: 3.6 g daily dose, all six subjects
Alzheimer’s disease = details: for mean plasma level three hours post-treatment / mean baseline plasma level at 24 weeks: LC/MS/MS; for mean plasma level three hours post-treatment: 24 weeks
[2] = depending on solvent and method
CB2 = details: repeated experiments after retraction
[3] = system: cannabinoid receptor 1 (CB1); details: repeated experiments after retraction
[4] = system: SERCA (sarcoplasmic/endoplasmic reticulum calcium) pump; details: previously reported
[5] = system: amyloid-β (Aβ) fibril formation; details: ThT assay
[6] = system: advanced pancreatic cancer; details: 8 g/day oral, steady state on day 3
[7] = system: murine macrophage cells, J774.1; details: read-out: cytotoxicity IC50; murine macrophage cell line
[8] = system: histone methyltransferase G9a; details: counterscreen
GSK-3β = details: no DTT, 30–90 min incubation
HAT Gcn5 = details: in vitro
[9] = room temperature, neutral pH
[10] = synthetic 1, rats
Aβ = details: transmission electron microscopy, in vitro
[11] = mice fed diets poor in iron
[12] = at 2 h, one individual, single 12 g oral dose
mutant CFTR (ΔF508 mice) = details: 45 mg kg^–1 day^–1 oral; not reproduced by independent lab (ref 139)

For `O=S(=O)(O)O` [Sulfate], the “conjugate level in blood” value [1] is listed as 8.9 ± 0.7 nmol/L.
In the case of `COc1cc(/C=C/C(=O)CC(=O)/C=C/c2ccc(O[C@@H]3O[C@H](C(=O)O)[C@@H](O)[C@H](O)[C@H]3O)c(OC)c2)ccc1O` [glucuronidated 1], the “mean plasma level three hours post-treatment” value (Alzheimer’s disease) is listed as 96.05 ± 26 ng/mL and the “conjugate level in blood” value [1] is listed as 15.8 ± 0.9 nmol/L.
In the case of `COc1cc(CCC(=O)CC(=O)CCc2ccc(OC3OC(C(=O)O)C(O)C(O)C3O)c(OC)c2)ccc1O` (centres unmarked) [glucuronidated tetrahydrocurcumin], the “mean plasma level three hours post-treatment” value (Alzheimer’s disease) is given as 298.2 ± 140.0 ng/mL.
For `COc1cc(CCC(=O)CC(=O)CCc2ccc(O)c(OC)c2)ccc1O` [tetrahydrocurcumin], the “mean baseline plasma level at 24 weeks” value (Alzheimer’s disease) is given as 6.86 ± 1.69 ng/mL and the “mean plasma level three hours post-treatment” value (Alzheimer’s disease) is given as 3.73 ± 2.0 ng/mL.
In the case of “(1E,6E)-1,7-bis(4-hydroxy-3-methoxyphenyl)-1,6-heptadiene-3,5-dione [Compound 1]”, the IC50 (AmpC β-lactamase; with Triton X-100) is listed as greater than 30 µM, the IC50 (AmpC β-lactamase; without Triton X-100) is listed as 12 µM and the Papp (Caco-2 model system) is listed as 3.18 × 10^–6 ± 1.08 × 10^–6 cm/s. For the same compound, the IC50 (HIV-2 protease; with Triton X-100) was greater than 100 µM, the IC50 (HIV-2 protease; without Triton X-100) was 9 µM and the “mean baseline plasma level at 24 weeks” value (Alzheimer’s disease) was 2.67 ± 1.69 ng/mL. For the same compound, the “mean plasma level three hours post-treatment” value (Alzheimer’s disease) was 7.76 ± 3.23 ng/mL, the “plasma level by HPLC” value (Alzheimer’s disease; one sample, 4 h after a 4 g dose, below assay LLOD) was 6 ng/mL and the “t1/2 for loss of parent compound” value (pH 7.5, rt, aqueous buffer) was “approximately 20 min”. For the same compound, the “reduction in parent material” value (samples prepared in clear versus amber glass) was 5%, the compound degradation (solvolysis in aqueous alkaline buffer, within 30 min) was 90% and the “pKa, first phenolic proton” value [2] was 8.5–10.4. For the same compound, the “pKa, second phenolic proton” value [2] was 9.5–10.7, the “inhibition of CB2” value (CB2) was “low micromolar inhibitor” and the “inhibition of CB1” value [3] was “low micromolar inhibitor”. For the same compound, the in vitro activity [4] was 5 to 15 µM, the IC50 [5] was 1 to 64 µM and the plasma level [6] was 22 to 41 ng/mL. The IC50 [7] was 31 µM, the “activity versus PCAF” value (HAT PCAF; counterscreen) was “failed to show any activity” and the “inhibition of PCAF” value (HAT PCAF; in vitro) was “failed to inhibit”. The “activity in FP secondary screen” value (tau fibril formation) was “inactive”, the “activity versus G9a” value [8] was “failed to show any activity” and the IC50 (GSK-3β) was 0.066 µM. For the same compound, the “inhibition of Gcn5” value (HAT Gcn5) was “failed to inhibit”, the solubility in water [9] was “practically insoluble” and the “solubility in water (estimate)” value ([9]; confounded by aggregation) was 1 to 10 µg/mL. For the same compound, the “level in blood as reported” value ([1]; 3.6 g daily, 1 h time point) was 0.6 nM, the IC50 (malate dehydrogenase; with Triton X-100) was greater than 30 µM and the IC50 (malate dehydrogenase; without Triton X-100) was 9 µM. For the same compound, the oral bioavailability [10] was “less than 1%”, the “effect on aggregation of Aβ” value (Aβ) was “does not affect the aggregation” and the iron status [11] was “inducing a state of overt iron deficiency”. For the same compound, the peak serum level [12] was 57.6 ng/mL and 156 nmol/L and the “effect on phenotypic deficits” value (mutant CFTR (ΔF508 mice)) was “ameliorated phenotypic deficits”.
